Results: the supplement of paper PMC10702517
± gives the standard deviation.

How the values were obtained:
[1] = chemical recovery into PDMS from spiked human plasma; higher = better extraction; conditions: pooled human plasma, extraction method: PES with PDMS
[2] = chemical recovery from spiked human plasma; higher = better extraction; conditions: pooled human plasma
[3] = chemical recovery by SPE of plasma after PDMS sampling; higher = better extraction; conditions: pooled human plasma, extraction method: HLB SPE of plasma after PES
[4] = extraction method: PES+SPE (3 d PDMS equilibration then HLB SPE)
[5] = extraction method: SPE only (HLB 96-well)
[6] = extraction method: SPE only (HLB 96-well), PES comparison experiment
[7] = extraction method: solvent precipitation (ACN + hexane)
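Wherever chemical recovery by SPE of plasma after PDMS sampling is given: over 400 spiked chemicals quantified by LC-HRMS or GC-HRMS via internal standard calibration, recovery relative to spike mix added to unspiked plasma extract to correct matrix effects.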

Row | Compound | chemical recovery into PDMS ([1]; equilibration time (d): 1) | chemical recovery into PDMS ([1]; equilibration time (d): 3) | chemical recovery into PDMS ([1]; equilibration time (d): 6) | chemical recovery [2, 4] | chemical recovery [2, 5] | chemical recovery [2, 6] | chemical recovery [2, 7] | chemical recovery by SPE of plasma ([3]; equilibration time (d): 1) | chemical recovery by SPE of plasma ([3]; equilibration time (d): 3) | chemical recovery by SPE of plasma ([3]; equilibration time (d): 6)
1 | CC(C)(C)C(=O)C(Oc1ccc(Cl)cc1)n1ccnc1 (centres undefined) [Climbazole] | 41.2 ± 2.2% | 40 ± 1% | 39.7 ± 1.4% | 66.5 ± 6.8% | 37.7 ± 2.8% | 46.8 ± 4.8% | 75.1 ± 3.8% | 1.65 ± 0.14% | 1.11 ± 0.35% | 0.487 ± 0.043%
2 | CCC(=O)O[C@]1(C(=O)CCl)[C@@H](C)C[C@H]2[C@@H]3CCC4=CC(=O)C=C[C@]4(C)[C@@]3(F)[C@@H](O)C[C@@]21C [Clobetasol propionate] | 28.2 ± 4.4% | 36.9 ± 2.1% | 37.2 ± 3.9% | – | – | 44.8 ± 8.7% | – | 5.08 ± 8.8% | 7.02 ± 6.3% | –
3 | C[C@H]1C[C@H]2[C@@H]3CCC4=CC(=O)C=C[C@]4(C)[C@@]3(F)[C@@H](O)C[C@]2(C)[C@@]1(O)C(=O)CCl [Clobetasol] | 1.52 ± 0.65% | 4.53 ± 1.1% | 4.86 ± 0.99% | – | – | 49 ± 7.5% | – | – | 53.2 ± 3.3% | –
4 | CCOC(=O)C(C)(C)Oc1ccc(Cl)cc1 [Clofibrate] | 40.3 ± 0.95% | 42.9 ± 4.2% | 43 ± 5.5% | – | 3.33 ± 1.6% | 44.4 ± 7.8% | 23 ± 10% | – | 0.676 ± 1.2% | –
5 | Clc1cccc(Cl)c1NC1=NCCN1 [Clonidine] | 7.21 ± 0.54% | 8.62 ± 0.81% | 6.38 ± 5.7% | 28.5 ± 5.5% | 41.2 ± 3.6% | 39.6 ± 6.6% | 60.3 ± 8.8% | 13.4 ± 3.1% | 12.7 ± 1.8% | 12.3 ± 3.9%
6 | COC(=O)[C@H](c1ccccc1Cl)N1CCc2sccc2C1 [Clopidogrel] | 26.7 ± 8.6% | 25.5 ± 7.8% | 28.3 ± 5.4% | – | – | 39.3 ± 7.1% | 78.1 ± 6.1% | 0.677 ± 0.17% | 1.02 ± 0.078% | 0.597 ± 0.026%
7 | CN/C(=N\[N+](=O)[O-])NCc1cnc(Cl)s1 [Clothianidin] | 0.813 ± 0.031% | 1.39 ± 0.29% | 1.64 ± 0.42% | 54 ± 1.1% | 55.1 ± 3.7% | 50.9 ± 5.5% | 75.8 ± 4.7% | 59.2 ± 6.8% | 62.2 ± 5.3% | 57 ± 2.6%
8 | CN1CCN(C2=Nc3cc(Cl)ccc3Nc3ccccc32)CC1 [Clozapine] | 0.000645 ± 0.0011% | – | – | 0.74 ± 0.14% | 39.1 ± 3.5% | 27.7 ± 11% | 68.3 ± 3.6% | 1.19 ± 0.08% | 1.11 ± 0.26% | 0.544 ± 0.065%
9 | CN1C(=O)CC[C@H]1c1cccnc1 [Cotinine] | 6.6 ± 0.43% | 10.6 ± 2.5% | 11.6 ± 1.5% | 23.3 ± 6.5% | 6.77 ± 2.8% | – | 80.5 ± 3.5% | 6.83 ± 6.3% | 2.33 ± 0.49% | 4.13 ± 1.4%
10 | O=S(=O)(O)NC1CCCCC1 [Cyclamate] | – | 0.0113 ± 0.022% | 0.00679 ± 0.0059% | 5.77 ± 0.89% | 7.88 ± 2.3% | – | 71.8 ± 4.1% | 7.95 ± 6.1% | 5.41 ± 0.92% | 8.35 ± 3.4%
11 | Cc1cc(C2CC2)nc(Nc2ccccc2)n1 [Cyprodinil] | 33.5 ± 1.8% | 36.1 ± 3.9% | 36.2 ± 1.2% | – | – | 38.5 ± 5.9% | 69.9 ± 3.2% | 0.89 ± 0.78% | 0.733 ± 0.65% | 0.362 ± 0.33%
12 | CC(=O)[C@@]1(O)CC[C@H]2[C@@H]3C=C(Cl)C4=CC(=O)[C@@H]5C[C@@H]5[C@]4(C)[C@H]3CC[C@@]21C [Cyproterone] | 34.4 ± 3.3% | 39 ± 1.6% | 39.5 ± 1.2% | – | – | 44.8 ± 7% | – | 7.2 ± 0.97% | 4.61 ± 0.52% | 2.35 ± 0.21%
13 | Nc1nc(N)nc(NC2CC2)n1 [Cyromazine] | – | – | 1.4 ± 0.44% | 3.13 ± 0.61% | 2.36 ± 2.5% | – | 72.9 ± 2.3% | – | – | 5.59 ± 4.5%
14 | CN(C)NC(=O)CCC(=O)O [Daminozide] | – | – | 0.0133 ± 0.023% | – | – | 3.23 ± 3.4% | – | 1.49 ± 2.5% | 0.206 ± 0.36% | 0.536 ± 0.28%
15 | CC(C)Nc1nc(N)nc(Cl)n1 [Desethylatrazine] | 11.2 ± 0.61% | 16.9 ± 1.5% | 18.5 ± 2.4% | 61.1 ± 5.3% | 45.4 ± 3.1% | 51 ± 8.1% | 45 ± 15% | 30.4 ± 3.7% | 26.3 ± 3.2% | 19 ± 2.4%
16 | CC(C)(C)Nc1nc(N)nc(Cl)n1 [Desethylterbutylazine] | 38 ± 1.5% | 40.9 ± 0.82% | 42.7 ± 1.9% | 40.7 ± 4.8% | 42.1 ± 2.3% | 46.9 ± 5.4% | – | 10 ± 1.1% | 9.29 ± 1% | 6.03 ± 0.45%
17 | Clc1ccc2c(c1)CCc1cccnc1C2=C1CCNCC1 [Desloratadine] | 0.203 ± 0.15% | 0.0639 ± 0.025% | 0.452 ± 0.57% | 2.22 ± 0.35% | 30.1 ± 1.7% | – | 59.9 ± 1.8% | 3.67 ± 0.83% | 4.32 ± 0.44% | 2.93 ± 0.67%
18 | Nc1cn[nH]c(=O)c1Cl [Desphenyl chloridazon] | 0.0144 ± 0.043% | 0.133 ± 0.038% | 0.161 ± 0.2% | – | – | 6.79 ± 4.2% | – | 2.76 ± 0.75% | 2.06 ± 0.86% | 3.77 ± 0.81%
19 | CN1C(=O)CN=C(c2ccccc2)c2cc(Cl)ccc21 [Diazepam] | 34.5 ± 1.3% | 40.4 ± 3.4% | 39.3 ± 2% | 66.5 ± 10% | 56.2 ± 2.7% | 45.5 ± 6.9% | 85.2 ± 3.9% | 9.29 ± 2% | 6.7 ± 0.88% | 4.56 ± 0.4%
20 | CCOP(=S)(OCC)Oc1cc(C)nc(C(C)C)n1 [Diazinon] | 31.2 ± 2.3% | 34 ± 2.4% | 34 ± 0.57% | – | – | 38 ± 6.1% | 62.9 ± 4.1% | 0.161 ± 0.14% | 0.223 ± 0.071% | 0.073 ± 0.064%
21 | Oc1ccc(Cl)cc1Cc1cc(Cl)ccc1O [Dichlorophen] | 0.919 ± 0.12% | 1.88 ± 0.2% | 2.38 ± 0.74% | 78.9 ± 10% | – | 50.4 ± 7.8% | 45.7 ± 2.1% | 53.2 ± 21% | – | –
22 | OC(c1ccc(Cl)cc1)(c1ccc(Cl)cc1)C(Cl)(Cl)Cl [Dicofol] | – | 56.9 ± 18% | – | – | 0.108 ± 0.017% | 14.4 ± 2.8% | 23.1 ± 0.7% | 11.5 ± 8.1% | 15 ± 1.5% | 15.2 ± 3.4%
23 | ClC1=C(Cl)[C@]2(Cl)[C@@H]3[C@@H]4C[C@@H]([C@H]5O[C@@H]45)[C@@H]3[C@@]1(Cl)C2(Cl)Cl [Dieldrin] | – | – | 97 ± 29% | – | 0.809 ± 0.21% | 8.32 ± 1.5% | 22.5 ± 1.4% | 0.594 ± 1% | – | –
24 | O=C(NC(=O)c1c(F)cccc1F)Nc1ccc(Cl)cc1 [Diflubenzuron] | 36.3 ± 2.5% | 38.3 ± 2.3% | 40.4 ± 5% | – | 29.8 ± 6.3% | – | 48.6 ± 2.1% | 8.71 ± 3.2% | 8.73 ± 0.29% | 4.73 ± 0.29%
25 | COCCN(C(=O)CS(=O)(=O)O)c1c(C)cccc1C [Dimethachlor ESA] | 0.000876 ± 0.0015% | 0.000445 ± 0.00077% | – | – | – | 50.3 ± 3.3% | – | 46.9 ± 7.3% | 53.3 ± 3.2% | 48 ± 4.5%
26 | COCCN(C(=O)C(=O)O)c1c(C)cccc1C [Dimethachlor OA] | – | – | 0.00348 ± 0.006% | – | 28.1 ± 6.4% | 51.3 ± 3.7% | 56.8 ± 7.6% | 60.2 ± 9.2% | 69.4 ± 2.3% | 61.4 ± 2.8%
